Laboratory results reported in publication PMC9408991, “Antitumor Effects of a New Retinoate of the Fungal Cytotoxin Illudin M in Brain Tumor Models” (International Journal of Molecular Sciences, 2022).
Like-named read-outs stand apart in the source and are kept apart here.

How the values were obtained:
[1] = test system: MCF-7^+Topo breast carcinoma cells; test: MTT cell viability assay, MCF-7+Topo breast carcinoma; assay type: cell-based; settings: Homo sapiens, MCF7/Topo, read-out: Inhibitory concentration IC50
Method: 518A2 (Department of Radiotherapy, Medical University of Vienna, Vienna, Austria) melanoma, KB-V1^Vbl (ACC-149) cervix carcinoma, MCF-7^Topo (ACC-115) breast carcinoma, HT29 (ACC-299) colon carcinoma were cultivated in Dulbecco’s Modified Eagle Medium (DMEM) supplemented with 10% fetal bovine serum and 1% antibiotic-antimycotic at 37 °C, 5% CO2, and 95% humidity. To keep MCF-7^Topo and KB-V1^Vbl cells resistant, the maximum-tolerated doses of topotecan or vinblastine were added to the cell culture medium 24 h after every passage. The human HL60 leukemia cells were obtained from the German National Resource Center for Biological Material (DSMZ), Braunschweig. Neuroectodermal stem cells NE-4C (ATCC No. CRL-2925), primary mouse astrocytes, rat glioma C6 (ATCC No. CCL-107) and human glioma U87 (ATCC No. HTB-14) were used.
(§1) Non-GBM cells (5 × 10^4 cells/mL, 100 µL/well) were grown in 96-well plates for 24 h. […] After the addition of 12.5 µL of a 0.5% MTT solution in PBS, the cells were incubated for 3 h at 37 °C so that the water-soluble MTT could be converted to formazan crystals. Then, the plates were centrifuged (300× g, 5 min, 4 °C), the medium withdrawn, and the formazan dissolved in 25 µL of DMSO containing 10% sodium dodecylsulfate (SDS) and 0.6% acetic acid for at least 2 h at 37 °C. In the case of the HL60 cells, after 2 h, the precipitate of formazan crystals was redissolved in a 10% solution of SDS in DMSO containing 0.6% acetic acid.

U251 glioblastoma cells = test: MTT cell viability assay, U251 glioblastoma; assay type: cell-based; settings: Homo sapiens, read-out: Inhibitory concentration IC50
Method: U251 (formerly known as U-373 MG; ECACC 09063001), Mz54 (CVCL_M406) human glioblastoma cell lines were cultured in DMEM+GlutaMax supplemented with 10% fetal bovine serum and 1% penicillin/streptomycin mixture. The human glioma cell line Mz54 was obtained from the Dept. of Neurosurgery, University Medical Centre, Johannes Gutenberg University Mainz, Germany, where this line was isolated from a recurrent grade IV glioblastoma. U251 and Mz54 cells were used in passages between 10 and 25 after re-authentication and 40 to 55 after culture establishment, respectively. Only mycoplasma-free cell cultures were used.
[…] Afterward, 10 µL of a 5 mg/mL MTT solution in PBS was added to the cells for 3 h at 37 °C. Then, the spheres were centrifuged shortly to collect the cells on the bottom of the plate, and the medium was removed by careful pipetting for both adherently grown and floating sphere GBM cultures. Afterward, formazan was dissolved in a mixture (24:1 v:v) of isopropanol and 1 M HCl using 100 µL for adherent cells by shaking the plates for at least 20 min. The absorbance of formazan (λ = 570 nm), and background (λ = 630 nm) was measured with a microplate reader (Tecan Spark, Tecan Deutschland GmbH, Crailsheim, Germany).

primary neurons = test: MTT cell viability assay, primary neurons; assay type: cell-based; settings: Mus musculus, Primary neuron, read-out: Inhibitory concentration IC50
Method: (§2) NE-4C cells derived from the anterior brain vesicles of p53-deficient 9-day-old mouse embryos were maintained in Minimum Essential Medium (MEM; Sigma Aldrich, Taufkirchen, Germany) supplemented with 5% fetal calf serum (FCS; Invitrogen-Gibco, Carlsbad, CA, USA), 4 mM glutamine (Sigma-Aldrich, Taufkirchen, Germany) and 40 ug/mL gentamycin (Chinoin, Budapest, Hungary). For maintenance, subconfluent cultures were regularly split by trypsinization (0.05 w/v% trypsin in PBS) into poly-L-lysine-coated Petri dishes. Primary astrocytes were isolated from whole brains of neonatal (P0-P3) mice, as described earlier. In brief, meninges were removed, and the tissue pieces were subjected to enzymatic dissociation, using 0.05% w/v trypsin and 0.05% w/v DNase for 10 min at room temperature. The cells were plated onto poly-L-lysine coated plastic surfaces and grown in MEM supplemented with 10% fetal calf serum, 4 mM glutamine and 40 ug/mL gentamycin. Primary neuronal cultures were prepared from embryonic (E15–E16) mouse (CD1) forebrains, as described earlier. In brief, cell suspensions were prepared by mechanical dissociation over a nylon mesh with a pore diameter of 40–42 μm. The cells were seeded at 10^5 cells/cm^2 density onto PLL-coated surfaces. The cultures were maintained in MEM supplemented with 5% FCS, 4 mM glutamine, 40 µg/mL gentamicin and 2.5 μg/mL amphotericin B (Sigma). In co-culture experiments, U87 glioma cells were seeded onto established neuronal cultures at DIV3 in a 25,000 cell/cm^2 density.
as §1

[2] = test system: astrocytes and neurons in primary neuronal cultures; test: Immunostaining of GFAP and βIII-tubulin in primary neuronal cultures; assay type: cell-based, mouse; settings: 1 µM; for effect on GFAP filaments of astrocytes: 48 h exposure
Method: Astroglia cells grown on poly-L-lysine-coated glass cover slips were fixed with 4% paraformaldehyde in PBS for 20 min at room temperature and then permeabilized with Triton X-100 (0.1% v/v in PBS; 5 min). Nonspecific antibodies were blocked by incubation with 3% FBS in PBS (room temperature, 1 h). α-GFAP antibody (rabbit, DAKO) was used in a dilution of 1:2000 and was visualized by anti-rabbit IgG Alexa 594 (1:1000). DAPI (4′,6-diamidino-2-phenylindole) was used for nuclei staining. Fluorescence images were captured manually on a Zeiss Axiovert 200 M microscope fitted with 20- to 60-fold zoom and a Zeiss AxioCam MRm digital camera. Further applied antibodies were tubulin III (Sigma T5076), used at a dilution of 1:1000, and Annexin V. Cy3.18 (Sigma A4963).
Figure 4 Immunostaining of primary neurons derived from E14, 5 forebrains treated with 1 µM of 1, 2 or all-trans retinoic acid (RA) plus 1. Blue: nuclei stained with DAPI; green: tubulin stained with βIII-tubulin specific antibody; red: GFAP stained with α-GFAP antibody. Fluorescence microscope Zeiss Axiovert 200 M, 63× objective, 1024 × 1024 res. Scale bar: 50 µm.

[3] = test system: co-cultures of neuronal cells and U87 glioma cells; test: Co-culture of primary neurons and U87 glioma cells; assay type: cell-based, mouse / human; settings: 1 µM
Method: The selectivity of illudins 1 and 2 for U87 glioblastoma cells versus normal neuronal cells was evaluated by applying them to co-cultures of these cells serving as a surrogate brain tumor model. To this end, isolated murine primary neurons were grown on IBIDI dishes and after […] and the establishment of neuronal aggregates, the glioma U87 cells (~ 25,000 cells) were added to the neuronal culture. After 12 h, 1 and 2 were applied in 1 µM concentrations and the response of the different cells was monitored over a period between 15 and 48 h post incubation (Figure 8). In the control samples, the number of proliferating U87 cells increased with time and overgrew the diminishing number of differentiating neurons.
as §2
Figure 8 Co-culture of neuronal cells and U87 glioma cells in the absence or presence of 1 µM of 1 or 2. The neuronal aggregates are marked by arrowheads. Scale bar: 100 µm.

Q: CC1=C2C(=CC(C)(C)[C@@H]2O)C(=O)[C@](C)(O)C12CC2 [Compound 1, illudin M] was tested. Which IC50 ([1]; 24 h exposure) did it give?
A: Its IC50 is 350 ± 130 nM.

Q: What about the IC50 ([1]; 48 h exposure) of the same compound?
A: Its IC50 is 50 ± 10 nM.

Q: What about the IC50 (U251 glioblastoma cells; U-251, U251, 24 h exposure) of the same compound?
A: Its IC50 is 300 ± 50 nM.

Q: And the IC50 (U251 glioblastoma cells; U-251, U251, 48 h exposure)?
A: Its IC50 is 120 ± 20 nM.

Q: What about the IC50 (primary neurons; 24 h exposure) of the same compound?
A: Its IC50 is 600 ± 120 nM.

Q: What about the IC50 (primary neurons; 48 h exposure) of the same compound?
A: Its IC50 is 190 ± 40 nM.

Q: What about the “effect on neuronal networks” value ([2]; 48 h) of the same compound?
A: The value was “did not completely disorganize neuronal networks”.

Q: What about the “effect on GFAP filaments of astrocytes” value [2] of the same compound?
A: Its value is “markedly pitted”.

Q: What about the “response of neurons and U87 cells in co-culture” value (“response” below) ([3]; 15 h after treatment) of the same compound?
A: The value was “considerable cellular fragmentation”.

Q: What about the “response” value ([3]; 48 h after treatment) of the same compound?
A: Its value is “merely cell debris”.

Q: How did the IC50 ([1]; 24 h exposure) turn out when CC1=C(/C=C/C(C)=C/C=C/C(C)=C/C(=O)O[C@@H]2C3=C(C)C4(CC4)[C@@](C)(O)C(=O)C3=CC2(C)C)C(C)(C)CCC1 [Compound 2, illudin M retinoate] was run?
A: The IC50 was 2500 ± 600 nM.

Q: What about the IC50 ([1]; 48 h exposure) of the same compound?
A: Its IC50 is 80 ± 10 nM.

Q: And the IC50 (U251 glioblastoma cells; U-251, U251, 48 h exposure)?
A: Its IC50 is 4510 ± 1300 nM.

Q: What about the IC50 (primary neurons; 24 h exposure) of the same compound?
A: The IC50 was 26000 ± 1000 nM.

Q: What about the IC50 (primary neurons; 48 h exposure) of the same compound?
A: Its IC50 is 14000 ± 2000 nM.

Q: What about the “effect on GFAP filaments of astrocytes” value [2] of the same compound?
A: The value was “did not cause similar alterations to astrocytes”.

Q: And the “response” value ([3]; 15 h after treatment)?
A: The value was “healthy and compact neuronal aggregates”.

Q: What about the “response” value ([3]; 48 h after treatment) of the same compound?
A: The value was “many neurons were still present”.
